Experimental findings from US6423325B1, “Skin care composition” (Conopco, Inc., priority 1999, dated 2002) are described below.

The assay relates to procollagen-I synthesis in human dermal fibroblasts. As to the kind of experiment: Dot blot assay for procollagen-I protein in dermal fibroblast conditioned medium. The settings on record: 24 hours, primary human foreskin fibroblasts, relative to vehicle treated control value of 100. In kind it is cell-based. On the procedure:
Primary human foreskin fibroblasts at passage 2 (P2) were seeded into 12-well plates at 10000 cells/cm^2 and maintained for 24 hours in an atmosphere of 5% carbon dioxide and 4% oxygen in Dulbeccos Modified Eagles Medium (DMEM) supplemented with 10% foetal calf serum. After this time the cells were washed with serum free DMEM and then incubated in fresh serum free DMEM for a further 60 hours. The fibroblast monolayers were then washed again with serum free DMEM. Test reagents and vehicle controls were added to the cells in triplicate in a final volume of 0.4 ml/well fresh serum free DMEM and incubated for a further 24 hours.
This fibroblast conditioned medium was either analysed immediately or snap frozen in liquid nitrogen and stored at −70° C. for future analysis. The cells were then counted and data from the dot-blot analysis subsequently standardised to cell number.
Samples of conditioned medium from dermal fibroblasts treated with vehicle (as a control) or test reagents were supplemented with 20 mM dithiothreitol (1:10 dilution of 200 mM stock solution) and 0.1% sodium dodecylsulphate (1:100 dilution of 10% stock solution), mixed well and then incubated at 75° C. for 2 minutes.
A standard for the assay was generated by serial dilution of neat fibroblast conditioned medium from fibroblasts seeded at 10000 cells/cm^2 in a 175 cm^2 flask and maintained in serum free DMEM as described above. Assay samples were subsequently applied in triplicate to a prewetted sheet of Immobilon-P transfer membrane using the 96-well Bio-Dot Apparatus from Bio-Rad as described in the manufacturers guidelines. Approximately 200 μl of medium was applied per well. The medium was allowed to filter through the membrane under gravity (30 minutes) after which the membrane was washed twice with PBS (200 μl). These PBS washes were allowed to filter through the membrane under gravity (2×15 minutes).
The Bio-Dot apparatus was then attached to a vacuum manifold and a third and final PBS wash carried out under suction. The apparatus was disassembled, the membrane removed and quickly cut as required before being placed in blocking buffer overnight at 4° C. Membranes prepared for procollagen-I analysis were blocked with 5% (w/v) non-fat dried milk powder/0.05% Tween 20 in PBS. The following day, the membranes were probed with 1:10000 dilution of primary antibodies to human procollagen-I (MAB1912; rat monoclonal; Chemicon Int. Inc., Temecula, Calif.) for 2 hours at room temperature. The membranes were subsequently washed with TBS/0.05% Tween 20 (3×5 minutes) and then incubated with 1:1000 dilution of ^125I-conjugated anti-rat fragments (Amersham) as required for 1 hour at room temperature. Following this the Immobilon strips were again washed with TBS/Tween 20 (3×5 minutes) before being allowed to dry in air at room temperature.
The dried membranes were wrapped in cellophane and exposed to a Molecular Dynamics storage phosphor screen for 16-18 hours. […] Dot intensity was assessed by computer-assisted image analysis using the quantification tools in ImageQuant™, standardised to cell number and the effects of various test reagents procollagen-I synthesis were determined relative to a vehicle treated control value of 100 arbitrary units.
In order to normalise the results the effects of the test substances were determined relative to a vehicle treated control value of 100 arbitrary units. […]

Several values for one entry are separate records, joined by “and”; a condition that tells them apart may be missing. Equal entries are not always repeated.

Take `CCCCC/C=C\C/C=C\CCCCCCCC(=O)O` [linoleic acid]: the Procollagen-I reads like this: (1 μM) 99.3 arbitrary units; (10 μM) 111.8 arbitrary units and 110.3 arbitrary units.

Turning to `CCCCCCCCCCC/C=C\CCCCC(=O)O` [PA, Petroselinic acid], the Procollagen-I (1 μM) is recorded as 87.6 arbitrary units.

Turning to `CC/C=C\C/C=C\C/C=C\C/C=C\C/C=C\C/C=C\CCC(=O)O` [DHA, Docosahexaenoic acid], the Procollagen-I (10 μM) was 105.1 arbitrary units.

As for `CCCCCCCC/C=C\CCCCCCCC(=O)O` [oleic acid, reference compound], for the setting “10 μM”, the Procollagen-I was 102.6 arbitrary units.
